Test results taken from patent publication US7241579B2, “Method of screening for GPR40 ligands” (SmithKline Beecham Corporation, priority 2000, dated 2007).
Where two headings read alike, the source gives them in different places.

Experiments:
Assay type in all cases: cell-based
[1] = test system: CHO cells expressing CRE-luciferase with no receptor; assay: CRE-luciferase reporter in CHO cells containing reporter only (no receptor); settings: 4 hours of treatment
Experimental: (§1) Specific coupling was determined in mammalian cells using transient expression of a CRE-luciferase reporter for Gαs and stable cell-lines containing Gal4/ELK-1-luciferase reporter for Gαq/Gαi. Wild-type CHO cells were co-transfected with 3×-CRE-luciferase reporter vector and various amounts of an expression vector for GPR40. The control cells were transfected with reporter vector only. The reporter gene plasmids were produced in house but similar vectors can be purchased from Stratagene ([…]®). Cells were plated in a 24 well tissue culture plate at 1×10^4 cells/well in DMEM/F12 supplemented with 5% FBS. After 72 hours at 37° C., 5% CO2, the cells were transfected using the liposomal transfection reagent sold under the trademark LIPOFECTAME® and with the following combinations of plasmids: • A-3×-CRE-Luc • B-3×-CRE-Luc+CMV-GPR40 • C-3×-CRE-Luc+CMV-Gs coupled receptor The concentration of reporter plasmid for all wells was 0.15 μg/well. Concentrations of receptor plasmids were 0.5, 1.0, 5.0, 10.0 ng/well. After 24 hrs Cells containing 1 ng/well of receptor plasmid or no DNA control and CRE-Luc reporter were treated with fatty acid or the calcitonin which is known to act through a Gs-coupled receptor (Chakraborty, Science 251: 1078 (1991)) at concentrations indicated. […]

[2] = test system: CHO cells containing GAL4/Elk1-luciferase reporter constructs; assay: GAL4/Elk-1-luciferase reporter in host CHO cells (reporter only), with and without pertussis toxin; settings: 4 hours after treatment
From the text: (§2) To further test the coupling of GPR40 to Gαi/Gαq a Gal4/Elk-1 reporter was used. A stable, clonal reporter line was created by transfecting CHO cells with a plasmid that contains an expression construct for GAL4/Elk-1 and a GAL4-luciferase reporter construct. A similar reporter system can now be purchased from Stratagene (under the trademark […]®). An expression construct for human GPR40 which contains a G418 resistance construct was transfected into the host CHO GAL4/Elk-1 reporter cell line (10 ug plasmid DNA pCR3-GPR40) via electroporation. The cell lines were selected for with 500 ug/mL G418 until all cells in the control were dead and clones were then picked. The Gal4/Elk-1 reporter can be activated through Gq or Gi. To confirm coupling via Gi, cells were treated with pertussis toxin treatment which ADP-ribosylates Gαi preventing its interaction with receptors (Bokoch et al., J. Biol. Chem 258:2072 (1983)). Pertussis toxin has no known effect on Gαq.
(§3) Host cells and those transfected with the GPR40 construct were plated in a 96-well tissue culture plate at 2000 cells/well in DMEM/F12 supplemented with 5% FBS. After 48 hours at 37° C. at 5% CO2, the cells were placed in serum-free DMEM/F12 in the presence or absence of 1 ug/ml pertussis toxin. After 16 hours at 37° C., 5% CO2 the host cells were treated with: lysophosphatidic acid (oleoyl) (LPA) which couples through GαI to activate MAP kinase (Hordijk et al., J. Biol. Chem. 269: 645 (1994)); thrombin which couples through Gαi and Gαq (Hung et al., J. Biol. Chem. 267:20831 (1992)); or 5,8,11-Eicosatriynoic acid (a GPR40 ligand), at the concentrations indicated. The host cells containing the GPR40 construct were stimulated with or 5,8,11-Eicosatriynoic acid at the concentrations indicated. Controls for lysophosphatidic acid contained 0.5% DMSO; controls for […] contained 0.05% ethanol. Luciferase activity was assayed 4 hours after treatment using a luciferase reporter gene assay kit available under the trademark LUCLITE®, as per manufacturers instructions (Packard Bioscience).

[3] = target: T1, human GPR40 (Homo sapiens, UniProt O14842); assay: CRE-luciferase reporter in CHO cells co-transfected with GPR40 expression vector; set-up: expressed in transfected cells; settings: CHO cells containing GPR40 and CRE-Luc reporter, 4 hours of treatment
Experimental: as §1

[4] = target: T1, human GPR40; assay: GAL4/Elk-1-luciferase reporter in CHO clones transfected with human GPR40, with and without pertussis toxin; set-up: expressed in transfected cells
From the text: as §2, §3

[5] = target: T1, human GPR40; assay: FLIPR intracellular calcium response in HEK-293 cells transiently expressing GPR40; set-up: expressed in transfected cells; host or cells: HEK-293 (transient); settings: FLIPR, GPR40 stimulation, Additional Fatty Acid Compounds
From the text: The Fluorometric Imaging Plate Reader (FLIPR™, Molecular Devices, UK) measures intracellular fluorescense in multi-well microplates. Where a GPCR couples to a calcium signalling pathway, the FLIPR system can be used with cells expressing the G-protein coupled receptor and containing calcium-sensitive fluorescent dyes, to monitor the intracellular calcium flux that occurs after activation of the G-coupled receptor. See, e.g., Kirk et al., J. Biomolecular Screening, 1:75 (1996).
(§4) The assays utilized a G-protein cocktail (+GPC) that contained chimeric and promiscuous G-proteins, as is known in the art of screening orphan G-protein coupled receptors.

[6] = test system: PGRW; assay: FLIPR calcium response in HEK-293 cells transiently expressing the 7TM receptor PGRW (GPRW); settings: HEK-293 cells transiently expressing PGRW, + G-protein cocktail
From the text: as §4

[7] = test system: HLTEX11; assay: FLIPR calcium response in HEK-293 cells transiently expressing the 7TM receptor HLTEX11; settings: HEK-293 cells transiently expressing HLTEX11, + G-protein cocktail
From the text: as §4

T1 sequence (O14842 whole entry): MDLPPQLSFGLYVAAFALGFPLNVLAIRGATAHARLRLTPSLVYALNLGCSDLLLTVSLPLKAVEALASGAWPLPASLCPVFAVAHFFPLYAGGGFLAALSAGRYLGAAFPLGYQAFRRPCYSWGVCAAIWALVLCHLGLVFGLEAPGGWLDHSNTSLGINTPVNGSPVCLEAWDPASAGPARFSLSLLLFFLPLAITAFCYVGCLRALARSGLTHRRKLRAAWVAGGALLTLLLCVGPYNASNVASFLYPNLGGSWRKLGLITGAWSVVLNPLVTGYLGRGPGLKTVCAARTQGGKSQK

| Compound | luciferase production (CRE-luciferase) [1] | luciferase production (GAL4/Elk-1 reporter) [2] | luciferase production (CRE-luciferase) [3] | agonist-stimulated luciferase activity after pertussis toxin treatment ([4]; cells containing GPR40, 1 ug/ml pertussis toxin 16 hours) | luciferase activity compared to basal (GAL4/Elk-1 reporter) ([4]; cells containing GPR40, 4 hours after treatment) | EC50 ([5]; read-out: EC50 uM) [µM] | EC50 ([5]; read-out: EC50) [µM] | FLIPR calcium response [6] | FLIPR calcium response [7] |
| --- | --- | --- | --- | --- | --- | --- | --- | --- | --- |
| CCCCCCCCC#CCC#CCC#CCCCC(=O)O [5,8,11-Eicosatriynoic acid] | no effect | no effect | no effect | not inhibited | increased luciferase activity | 1.7 | 1.7 | – | – |
| CCCCCCCC/C=C/CCCCCCCC(=O)O [Elaidic acid] | – | – | – | – | – | – | – | No response was detected | No response was detected |
